Structures can show the parent of a compound that is named as a salt.
System: spleen
Experiment: Transcriptional profiling on Affymetrix GeneChips, single dose, naïve mice: spleen
Format: in vivo, C57BL/6 mice
Conditions: for Number of differentially expressed genes identified: Spleen: Naïve, Single Dose; for FC Pdia4 (protein disulfide isomerase associated 4): probe 1416497_PM_at; for FC Aox1 (aldehyde oxidase 1): probe 1419435_PM_at; for FC Osgin1 (oxidative stress induced growth inhibitor 1): probe 1424022_PM_at; for FC Kirrel (kin of IRRE like (Drosophila)): probe 1434797_PM_at; for FC 9130221J17Rik (RIKEN cDNA 9130221J17 gene): probe 1443159_PM_at; for Number of genes, DMF Only / MMF Only: Spleen
Experimental: Treated mice were sacrificed at 2, 7, or 12 hours. Tissues (liver, spleen, kidney, jejunum, cortex, hippocampus, striatum and whole blood) were collected and analyzed by transcriptional profiling on mouse Affymetrix GeneChips.
Tissues (liver, spleen, kidney, jejunum, cortex, hippocampus, striatum and whole blood) were collected and analyzed by transcriptional profiling on mouse Affymetrix GeneChips.
Animals were exposed to CO2 and whole blood collected via cardiac puncture. Two 100 μl aliquots of whole blood were collected in 1.5 mL microcentrifuge tubes and snap frozen in liquid nitrogen. Peripheral (liver, spleen, kidney and jejunum) and CNS brain (cerebellum, hippocampus, striatum and cortex) tissues were harvested and snap frozen in liquid nitrogen, with special care taken to collect tissues of similar size and from the same location. All samples were stored at −80° C. until RNA extraction was conducted.
For RNA preparation, frozen tissues were placed in 2 mL RNAse-free 96-well blocks with 1.5 mL QIAzol Lysis Reagent (QIAgen) and a 3.2 mm stainless steel bead (BioSpec Products, Bartlesville, Okla.). Tissues were disrupted for four cycles of 45 seconds in a Mini-Beadbeater (Biospec Products). RNA was extracted in chloroform and the aqueous phase was mixed with an equal volume of 70% ethanol. Extracted RNA was applied to RNeasy 96 plates and purified by the spin method according to the manufacturer's protocol (RNeasy 96 Universal Tissue Protocol, QIAgen, Hilden Germany).
Automated sample amplifications and biotin labelings were carried out using the NuGEN Ovation RNA Amplification system V2 (Cat #3100), Ovation WB reagent (Cat #1300) and Encore Biotin module (Cat #4200) (NuGEN Technologies, Inc, San Carlos, Calif.) according to manufacturer's recommendations using an Arrayplex automated liquid handler (Beckman Coulter, Indianapolis, Ind.). Two micrograms of biotin labeled sscDNA probe were hybridized to Affymetrix GeneChip Affymetrix HT_MG-430_PM plate arrays with modified conditions as described in Allaire et al. Washing and staining of the hybridized arrays were completed as described in the GeneChip Expression analysis technical manual for HT plate arrays using the Genechip® Array Station (Affymetrix, Santa Clara, Calif.) with modifications as described in Allaire et al. The processed GeneChip® plate arrays were scanned using GeneTitan scanner (Affymetrix, Santa Clara, Calif.).
Affymetrix scans were subject to quality control (QC) measures. These tests included a visual inspection of the distribution of raw signal intensities and an assessment of RNA degradation, relative log expression (RLE), and normalized unsealed standard error (NUSE). All sample scans that passed these QC metrics were included in the analysis.
All CEL files were subjected to GC-content-based Robust Multi-array Average (GCRMA) normalization (version 2.20.0) (Irizarry R A, et al. Nucleic Acids Res 2003; 31:e15; Li C, et al. Genome Biol 2001; 2:[…]0032). Expression levels were log (base 2) transformed.
All calculations and analyses were carried out using R (version 2.11.1) and Bioconductor computational tools (Gentleman R. Springer Science+Business Media 2005).

[1] = 100 mpk, vs Vehicle, 2 h after last dosing
[2] = 100 mpk, vs Vehicle, 7 h after last dosing
[3] = 100 mpk, vs Vehicle, 12 h after last dosing

With `COC(=O)/C=C/C(=O)O` [MMF, monomethyl fumarate] the “Number of differentially expressed genes identified: Spleen” value (“Number of differentially” below) [1] was 12, the “Number of differentially” value [2] was 2 and the “Number of differentially” value [3] was 0. The “FC Pdia4 (protein disulfide isomerase associated 4)” value (SPLEEN, 100MMF-vs-Veh, 2 h) was −1.59, the “FC Aox1 (aldehyde oxidase 1)” value (SPLEEN, 100MMF-vs-Veh, 2 h) was 2.35 and the “FC Srxn1 (sulfiredoxin 1 homolog (S. cerevisiae))” value (SPLEEN, 100MMF-vs-Veh, 2 h, probe 1419942_PM_at) was 2.02. The “FC Txnrd1 (thioredoxin reductase 1)” value (SPLEEN, 100MMF-vs-Veh, 2 h, probe 1421529_PM_a_at) was 1.53, the “FC Osgin1 (oxidative stress induced growth inhibitor 1)” value (SPLEEN, 100MMF-vs-Veh, 2 h) was 1.83 and the “FC Txnrd1 (thioredoxin reductase 1)” value (SPLEEN, 100MMF-vs-Veh, 2 h, probe 1424486_PM_a_at) was 2.14. For the same compound, the “FC Srxn1 (sulfiredoxin 1 homolog (S. cerevisiae))” value (SPLEEN, 100MMF-vs-Veh, 2 h, probe 1426875_PM_s_at) was 1.92, the “FC 6330406I15Rik (RIKEN cDNA 6330406I15 gene)” value (SPLEEN, 100MMF-vs-Veh, 2 h, probe 1426937_PM_at) was −1.58 and the “FC Kirrel (kin of IRRE like (Drosophila))” value (SPLEEN, 100MMF-vs-Veh, 2 h) was −1.65. For the same compound, the “FC Armc8 (armadillo repeat containing 8)” value (SPLEEN, 100MMF-vs-Veh, 2 h, probe 1434951_PM_at) was −1.54, the “FC 9130221J17Rik (RIKEN cDNA 9130221J17 gene)” value (SPLEEN, 100MMF-vs-Veh, 2 h) was 1.55 and the “FC probe 1446490_PM_at (no gene named)” value (SPLEEN, 100MMF-vs-Veh, 2 h, probe 1446490_PM_at) was −1.76. The “FC Srxn1 (sulfiredoxin 1 homolog (S. cerevisiae))” value (SPLEEN, 100MMF-vs-Veh, 7 h, probe 1419942_PM_at) was 1.87, the “FC Srxn1 (sulfiredoxin 1 homolog (S. cerevisiae))” value (SPLEEN, 100MMF-vs-Veh, 7 h, probe 1426875_PM_s_at) was 1.69 and the “Number of genes, DMF Only / MMF Only” value was 3. For the same compound, the “Aox1 (probe set 1419435_PM_at) differential expression” value (spleen, 2 hr) was 2.35, the “Armc8 (probe set 1434951_PM_at) differential expression” value (spleen, 2 hr) was −1.54 and the “Kirrel (probe set 1434797_PM_at) differential expression” value (spleen, 2 hr) was −1.65. The “Osgin1 (probe set 1424022_PM_at) differential expression” value (spleen, 2 hr) was 1.83, the “Paip1 (probe set 1425521_PM_at) differential expression” value (spleen, 2 hr) was −1.56 and the “Pdia4 (probe set 1416497_PM_at) differential expression” value (spleen, 2 hr) was −1.59. The “Rod1 (probe set 1424084_PM_at) differential expression” value (spleen, 2 hr) was −1.54, the “Srxn1 (probe set 1419942_PM_at) differential expression” value (spleen, 2 hr) was 2.02 and the “Txnrd1 (probe set 1424486_PM_a_at) differential expression” value (spleen, 2 hr) was 2.14. The “Srxn1 (probe set 1419942_PM_at) differential expression” value (spleen, 7 hr) was 1.87 and the “Srxn1 mRNA fold change vs vehicle” value (spleen, 2 hr after single 100 mg/kg oral dose) was 1.87.
`COC(=O)/C=C/C(=O)OC` [DMF, dimethyl fumarate] was tested, and the “Number of differentially” value (100 mpk DMF-vs-100 mpk MMF, 2 h after last dosing) was 0, the “Number of differentially” value (100 mpk DMF-vs-100 mpk MMF, 7 h after last dosing) was 0 and the “Number of differentially” value (100 mpk DMF-vs-100 mpk MMF, 12 h after last dosing) was 0. The “Number of differentially” value [1] was 13, the “Number of differentially” value [2] was 2 and the “Number of differentially” value [3] was 0. For the same compound, the “genes in differential expression gene list” value (SPLEEN, 100DMF-vs-100MMF, 2 h) was “None”, the “genes in differential expression gene list” value (SPLEEN, 100DMF-vs-100MMF, 7 h) was “None” and the “genes in differential expression gene list” value (SPLEEN, 100DMF-vs-100MMF, 12 h) was “None”. The “FC Pdia4 (protein disulfide isomerase associated 4)” value (SPLEEN, 100DMF-vs-Veh, 2 h) was −1.60, the “FC Aox1 (aldehyde oxidase 1)” value (SPLEEN, 100DMF-vs-Veh, 2 h) was 2.61 and the “FC Srxn1 (sulfiredoxin 1 homolog (S. cerevisiae))” value (SPLEEN, 100DMF-vs-Veh, 2 h, probe 1419942_PM_at) was 2.16. The “FC Txnrd1 (thioredoxin reductase 1)” value (SPLEEN, 100DMF-vs-Veh, 2 h, probe 1421529_PM_a_at) was 1.55, the “FC Osgin1 (oxidative stress induced growth inhibitor 1)” value (SPLEEN, 100DMF-vs-Veh, 2 h) was 1.78 and the “FC Gclc (glutamate-cysteine ligase, catalytic subunit)” value (SPLEEN, 100DMF-vs-Veh, 2 h, probe 1424296_PM_at) was 1.76. The “FC Txnrd1 (thioredoxin reductase 1)” value (SPLEEN, 100DMF-vs-Veh, 2 h, probe 1424486_PM_a_at) was 2.41, the “FC Txnrd1 (thioredoxin reductase 1)” value (SPLEEN, 100DMF-vs-Veh, 2 h, probe 1424487_PM_x_at) was 1.73 and the “FC Srxn1 (sulfiredoxin 1 homolog (S. cerevisiae))” value (SPLEEN, 100DMF-vs-Veh, 2 h, probe 1426875_PM_s_at) was 2.02. For the same compound, the “FC Kirrel (kin of IRRE like (Drosophila))” value (SPLEEN, 100DMF-vs-Veh, 2 h) was −1.54, the “FC 9130221J17Rik (RIKEN cDNA 9130221J17 gene)” value (SPLEEN, 100DMF-vs-Veh, 2 h) was 1.52 and the “FC Mafg (v-maf musculoaponeurotic fibrosarcoma oncogene family, protein G (avian))” value (SPLEEN, 100DMF-vs-Veh, 2 h, probe 1448916_PM_at) was 1.58. For the same compound, the “FC Srxn1 (sulfiredoxin 1 homolog (S. cerevisiae))” value (SPLEEN, 100DMF-vs-Veh, 2 h, probe 1451680_PM_at) was 1.53, the “FC Srxn1 (sulfiredoxin 1 homolog (S. cerevisiae))” value (SPLEEN, 100DMF-vs-Veh, 7 h, probe 1419942_PM_at) was 1.67 and the “FC Srxn1 (sulfiredoxin 1 homolog (S. cerevisiae))” value (SPLEEN, 100DMF-vs-Veh, 7 h, probe 1426875_PM_s_at) was 1.50. For the same compound, the “Number of genes, DMF Only / MMF Only” value was 2, the “Aox1 (probe set 1419435_PM_at) differential expression” value (spleen, 2 hr) was 2.61 and the “Gclc (probe set 1424296_PM_at) differential expression” value (spleen, 2 hr) was 1.76. For the same compound, the “Kirrel (probe set 1434797_PM_at) differential expression” value (spleen, 2 hr) was −1.54, the “Mafg (probe set 1448916_PM_at) differential expression” value (spleen, 2 hr) was 1.58 and the “Osgin1 (probe set 1424022_PM_at) differential expression” value (spleen, 2 hr) was 1.78. For the same compound, the “Pdia4 (probe set 1416497_PM_at) differential expression” value (spleen, 2 hr) was −1.60, the “Srxn1 (probe set 1419942_PM_at) differential expression” value (spleen, 2 hr) was 2.16 and the “Txnrd1 (probe set 1424486_PM_a_at) differential expression” value (spleen, 2 hr) was 2.41. For the same compound, the “Srxn1 (probe set 1419942_PM_at) differential expression” value (spleen, 7 hr) was 1.67 and the “genes in differential expression gene list” value (spleen, 100DMF-vs-Veh, 12 h) was “None”.

— US20160115540A1, “PRODRUGS AND DRUGS” (Biogen MA Inc., priority 2013, published 2016)
